Changes are numbered by the printed parent chain.
Columns and labels:
Assay type in all cases: cell-based
[1] = target: T1, human GALR2 WT (Homo sapiens, UniProt O43603); assay: NanoBiT-based Gq activation assay (Gq-PLCβ association), WT GALR2; details: HEK293-A, HEK293A, normalized to WT (1:1), mean ± SEM, n = 3
T1 construct: expressed in transfected cells; host or cells: HEK293A
T1 sequence (O43603 1-387): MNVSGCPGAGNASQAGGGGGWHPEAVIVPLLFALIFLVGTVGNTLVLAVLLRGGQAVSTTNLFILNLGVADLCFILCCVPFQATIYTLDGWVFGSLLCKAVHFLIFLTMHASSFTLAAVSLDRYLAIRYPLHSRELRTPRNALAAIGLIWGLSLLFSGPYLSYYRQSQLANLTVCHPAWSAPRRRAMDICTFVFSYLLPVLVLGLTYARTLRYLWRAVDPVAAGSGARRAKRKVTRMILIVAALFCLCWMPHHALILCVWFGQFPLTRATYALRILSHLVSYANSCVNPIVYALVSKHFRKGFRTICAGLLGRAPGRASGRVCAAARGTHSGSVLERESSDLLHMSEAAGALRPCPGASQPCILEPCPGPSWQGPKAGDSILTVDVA
Protocol: (§1) After an incubation for 1 day, the transfected cells were harvested, pelleted with centrifugation, and suspended in 2 mL of Hank’s balanced saline solution containing 0.01% bovine serum albumin (BSA fatty acid–free grade, SERVA) and 5 mM HEPES (pH 7.4) (assay buffer). The cell suspension was dispensed in a white 96-well plate at a volume of 80 μl per well and mixed with 20 μl of 50 μM coelenterazine (custom-synthesized by Amadis Chemical) diluted in the assay buffer. After 2-h incubation at room temperature, the plate was measured for baseline luminescence (SpectraMax L, Molecular Devices). […] Kinetics data points from 5 min to 10 min were averaged and normalized to the initial count and used as a G-protein activation index. The G-protein activation signals were fitted to a 4-parameter sigmoidal concentration-response curve (GraphPad Prism8), and pEC50 values (negative logarithmic values of EC50 values) and Span values (“Top”–“Bottom”) were obtained. For individual experiments, we calculated Emax by normalizing Span to the WT GALR2 and ΔpEC50 by subtracting pEC50 of the WT GALR2 performed in parallel. We also calculated Emax/EC50 of GALR2 mutants relative to that of GALR2 WT, a dimensionless parameter known as relative intrinsic activity (RAi) and used its log-transformed value (Log RAi) to denote receptor activity.

[2] = target: T2, GALR2 R184^5.35×36V mutant (Homo sapiens, UniProt O43603, R184V); assay: NanoBiT-based Gq activation assay, R184^5.35×36V; details: HEK293-A; HEK293A; expression ~WT (1:5); normalized to WT (1:1); mean ± SEM, n = 3; ns p > 0.05 vs expression-matched WT
T2 construct: expressed in transfected cells; host or cells: HEK293A
T2 sequence (O43603 1-387 R184V): T1 sequence (O43603 1-387) with R184V
Protocol: as §1

[3] = target: T3, GALR2 F264^ECL3A mutant (Homo sapiens, UniProt O43603, F264A); assay: NanoBiT-based Gq activation assay, F264^ECL3A; details: HEK293-A; HEK293A; expression ~WT (1:1); normalized to WT (1:1); mean ± SEM, n = 3; ns p > 0.05 vs expression-matched WT
T3 construct: expressed in transfected cells; host or cells: HEK293A
T3 sequence (O43603 1-387 F264A): T1 sequence (O43603 1-387) with F264A
Protocol: as §1

[4] = target: T4, GALR2 H102^3.29A mutant (Homo sapiens, UniProt O43603, H102A); assay: NanoBiT-based Gq activation assay, H102^3.29A; details: HEK293-A; HEK293A; expression ~WT (1:10); normalized to WT (1:1); mean ± SEM, n = 3; ** p < 0.01 vs expression-matched WT
T4 construct: expressed in transfected cells; host or cells: HEK293A
T4 sequence (O43603 1-387 H102A): T1 sequence (O43603 1-387) with H102A
Protocol: as §1

[5] = target: T5, GALR2 R274^7.35×34A mutant (Homo sapiens, UniProt O43603, R274A); assay: NanoBiT-based Gq activation assay, R274^7.35×34A; details: HEK293-A
T5 construct: expressed in transfected cells; host or cells: HEK293A
T5 sequence (O43603 1-387 R274A): T1 sequence (O43603 1-387) with R274A
Protocol: as §1

CC(C)C[C@H](NC(=O)CNC(=O)[C@H](CC(N)=O)NC(=O)[C@H](CCCCN)NC(=O)[C@H](CC(=O)O)NC(=O)[C@H](CO)NC(=O)[C@H](Cc1ccccc1)NC(=O)[C@H](CO)NC(=O)[C@H](CCCNC(=N)N)NC(=O)[C@H](Cc1c[nH]cn1)NC(=O)[C@H](CC(N)=O)NC(=O)CNC(=O)[C@@H](NC(=O)[C@H](C)NC(=O)[C@H](Cc1c[nH]cn1)NC(=O)[C@@H]1CCCN1C(=O)CNC(=O)[C@H](CC(C)C)NC(=O)[C@H](CC(C)C)NC(=O)[C@H](Cc1ccc(O)cc1)NC(=O)CNC(=O)[C@H](C)NC(=O)[C@H](CO)NC(=O)[C@H](CC(N)=O)NC(=O)[C@H](CC(C)C)NC(=O)[C@@H](NC(=O)[C@H](Cc1c[nH]c2ccccc12)NC(=O)CN)[C@@H](C)O)C(C)C)C(=O)N[C@H](C(=O)N[C@@H](CO)C(=O)O)[C@@H](C)O [galanin] showed an Emax ([1]; WT (1:5) plasmid) of 70.1 ± 8.7%, an Emax ([1]; WT (1:10) plasmid) of 48.3 ± 4.7% and an Emax ([1]; WT (1:25) plasmid) of 27.4 ± 5.1%. For the same compound, the Emax [2] was 60 ± 6%, the Emax [3] was 90.3 ± 2.3% and the Emax [4] was 17.4 ± 2.4%. The Emax [5] was 74.7 ± 5.9%.
